Values belong to the molecule of their own block, whether it stands above or below them. Ends that are not written are not given here.
Key:
CETP = experiment: Cholesteryl ester transfer assay (3H CE-HDL to VLDL+LDL, baboon LPDS as CETP source); assay type: biochemical; conditions: for effect on transfer of CE from HDL to VLDL+LDL: electroeluted from gels, increasing concentrations, lipoproteins from low HDL1 baboons; for inhibitory activity of CETP: in vitro, result in words
Method: The CE transfer activity of a sample was assayed by a modification of a procedure described previously (Kushwaha et al, (1986), supra). Briefly, ^3 H CE-labeled HDL3 containing 50-100 μg of CE from low HDL1 baboons was incubated with VLDL+LDL containing 100-300 μg CE in the presence of LPDS. The acceptor lipoproteins and the LPDS were obtained from low HDL1 baboon plasma (chow diet). In some cases, the HDL3 was obtained from high HDL1 baboons maintained on the HCHF diet. The incubations were carried out at 4° C. (control) and 37° C. for 4-6 hrs, and terminated by placing the samples on ice. The assay mixture was then ultracentrifuged to separate VLDL+LDL having a d>1.040 g/ml, and the radioactivity in the lipoproteins was counted as described previously (Kushwaha et al, (1986), supra). Any difference observed in the radioactivity transferred from HDL to VLDL+LDL at 4° C. and 37° C. was attributed to CETP activity in the LPDS. Time course experiments gave a linear response up to 7 hrs. Similarly, the CETP activity was linear with increasing LPDS, up to 140 μl LPDS, which was derived from an equivalent volume of plasma. The polypeptide of the invention, and synthetic fragments thereof were added to the reaction mixture to determine their CETP inhibitory activities, along with an appropriate synthetic control peptide. The percent difference between the control experiment and the assay with inhibitor peptide was expressed as the inhibitor activity. A CE transfer assay as described in Example 4 above was conducted using HDL1 baboon plasma, ^3 H HDL, and the VLDL+LDL carriers, in the presence of CETP enzyme to mediate the exchange. The reactions were conducted at 37° C. and at 4° C. (control) in duplicate.

Human CETP = biological target: T1, Human CETP (Homo sapiens, UniProt P11597); experiment: Inhibition of human CETP by synthetic CETP inhibitor peptide (human LPDS); assay type: biochemical; conditions: 100 μg peptide, HDL 10 μg, VLDL+LDL 50 μg, CETP 200 μl, 37 °C
T1 construct: To isolate human CETP, blood (5-10 ml) from human subjects was obtained in tubes containing EDTA; from tissue; host or cells: human plasma of individual donors, supernatant after heparin/MnCl2 and dextran sulfate precipitation of lipoproteins
T1 sequence (P11597 18-493): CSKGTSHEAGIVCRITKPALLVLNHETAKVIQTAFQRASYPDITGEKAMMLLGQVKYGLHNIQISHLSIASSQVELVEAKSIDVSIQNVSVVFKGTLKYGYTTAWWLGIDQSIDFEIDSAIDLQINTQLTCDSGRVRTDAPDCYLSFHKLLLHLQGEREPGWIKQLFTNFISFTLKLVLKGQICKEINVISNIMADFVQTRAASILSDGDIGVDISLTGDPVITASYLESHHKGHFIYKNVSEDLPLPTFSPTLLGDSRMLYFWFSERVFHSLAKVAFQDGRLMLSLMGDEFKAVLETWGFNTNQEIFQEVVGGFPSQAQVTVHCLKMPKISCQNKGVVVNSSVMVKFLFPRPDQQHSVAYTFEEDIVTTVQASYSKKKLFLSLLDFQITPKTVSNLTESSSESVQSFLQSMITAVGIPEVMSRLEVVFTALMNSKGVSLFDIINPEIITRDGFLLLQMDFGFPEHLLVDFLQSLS

[1] = biological target: baboon plasma cholesteryl ester transfer protein (CETP), supplied as lipoprotein-deficient serum (LPDS, d>1.21 g/ml) from low HDL1 baboon plasma (baboon (papio sp.))

Molecule: Albumin [reference compound]
- effect on transfer of CE from HDL to VLDL+LDL (CETP): no effect

Molecule: SEQ. ID. NO:1: synthetic 36 amino acid peptide, sequence of the 4 kD baboon CETP inhibitor, common with N-terminal fragment of apo C-I (DVSSALDKLKEFGNTLEDKAWEVINRIKQSEFPAKT)
- inhibition of CE transfer from HDL to VLDL and LDL (CETP; 50 μg peptide, lipoproteins of low HDL1 baboons): significantly (p<0.01) inhibited
- inhibitory activity of CETP (CETP): inhibitory of CETP

- Inhibition (%) (Human CETP; human CETP source AB (S.N. 6)): 60%
- Inhibition (%) (Human CETP; human CETP source EJ (S.N. 3)): 85%
- Inhibition (%) (Human CETP; human CETP source EW (S.N. 11)): 71%
- Inhibition (%) (Human CETP; human CETP source GL (S.N. 7)): 85%
- Inhibition (%) (Human CETP; human CETP source KC (S.N. 8)): 83%
- Inhibition (%) (Human CETP; human CETP source KR (S.N. 5)): 82%
- Inhibition (%) (Human CETP; human CETP source ML (S.N. 12)): 77%
- Inhibition (%) (Human CETP; human CETP source RK (S.N. 2)): 72%
- Inhibition (%) (Human CETP; human CETP source SH (S.N. 1)): 60%
- Inhibition (%) (Human CETP; human CETP source TH (S.N. 9)): 86%
- Inhibition (%) (Human CETP; human CETP source UM (S.N. 10)): 90%
Molecule: APDVSSALDKLKEFGNTLEDKAWEVINRIKQSEFPAKT [SEQ. ID. NO:2]

Molecule: amino acids 28 to 36: C-terminal fragment of SEQ. ID. NO:1, amino acids 28 to 36 (9 amino acids) (KQSEFPAKT)
- inhibitory activity of CETP at 50 μg (CETP; 50 μg peptide): limited inhibitory activity
- activity inhibitory of CETP at 200 μg (CETP; 200 μg peptide, compared with the 36 amino acid peptide): approximately the same as that of the 36 amino acid peptide

Molecule: amino acids 16 to 36: C-terminal fragment of SEQ. ID. NO:1, amino acids 16 to 36 (21 amino acids) (LEDKAWEVINRIKQSEFPAKT)
- inhibitory activity of CETP at 50 μg (CETP; 50 μg peptide): limited inhibitory activity

Molecule: amino acids 15 to 30: intermediate fragment of SEQ. ID. NO:1, amino acids 15 to 30 (TLEDKAWEVINRIKQS)
- inhibitory activity of CETP (CETP): active as inhibitors of CETP

Molecule: amino acids 1 to 20: N-terminal fragment of SEQ. ID. NO:1, amino acids 1 to 20 (DVSSALDKLKEFGNTLEDKA)
- inhibitory activity of CETP (CETP): active as inhibitors of CETP

Molecule: amino acids 1 to 15: N-terminal fragment of SEQ. ID. NO:1, amino acids 1 to 15 (DVSSALDKLKEFGNT)
- inhibitory activity of CETP (CETP): active as inhibitors of CETP

Molecule: amino acids 1 to 10: N-terminal fragment of SEQ. ID. NO:1, amino acids 1 to 10 (DVSSALDKLK)
- inhibitory activity of CETP (CETP): active as inhibitors of CETP

Molecule: 4 kD polypeptide: endogenous CETP inhibitor polypeptide of molecular weight 4,000 electroeluted from lipoproteins of high HDL1 baboons (DVSSALDKLKEFGNTLEDKAWEVINRIKQSEFPAKT)
- effect on transfer of CE from HDL to VLDL+LDL (CETP): significantly inhibited CETP activity

- Inhibition (%) of CETP-mediated cholesteryl ester transfer [1]: 60%
Molecule: TPDVSSALDKLKEFGNTLEDKARELISRIKQSELSAKM [synthetic CETP inhibitor peptide, human apo C-I terminal peptide with 38 amino acids (SEQ ID NO 3)]

- Inhibition (%) of CETP-mediated cholesteryl ester transfer [1]: 52%
Molecule: APDVSSALDKLKEFGNTLEDKAWEVINRIKQSEFPAKT [synthetic CETP inhibitor peptide, baboon apo C-I terminal peptide with 38 amino acids (SEQ ID NO 2)]

— patent US5519001A, “CETP inhibitor polypeptide antibodies against the synthetic polypeptide and prophylactic and therapeutic anti-atherosclerosis treatments” (Southwest Foundation for Biomedical Research, priority 1995, dated 1996)
